Entries after “also recorded” stand apart in the source; their conditions may differ.
How the values were obtained:
TRPA1 [1] = target: T1, TRPA1 (Rattus norvegicus, UniProt Q6RI86); test: Whole-cell patch-clamp of TRPA1-expressing HEK293 cells; type: cell-based; conditions: for Activation of TRPA1 currents by VGAs: 0.9 mM, voltage-clamped HEK293 cells
T1 construct: expressed in transfected cells; host or cells: HEK 293F
Description: Electrophysiology. […] Whole-cell and single-channel patch-clamp recordings were performed by using an EPC8 amplifier (HEKA Electronics). For whole-cell and excised patch recordings the bath solution contained 140 mMNaCl, 4 mMKCl, 1 mMMgCl2, 1.2 mMCaCl2, 10 mMHepes, 10 mM glucose, pH 7.3. For cell-attached experiments, NaCl was replaced with KCl in the bath solution. […] For neuronal recording NaCl was replaced with K-gluconate (plus 1 mMATP, 0.2 mM GTP). Solutions were applied via a gravity-fed system. […] Voltage-dependent properties were measured as described in Matt and Ahern, J. Physiol. […] The baseline currents under control conditions were subtracted. For cell-attached experiments, peak amplitudes were measured from all-points histograms, and open probability was measured as NPo>750 ms. Defolliculated Xenopus laevis oocytes were injected with ≈10 ng of hTRPA1 (gift of Ardem Patapoutian, The Scripps Research Institute, La Jolla, Calif.).
Volatile General Anesthetics and Chemicals. Saturated stock solutions of volatile GAs were prepared in gas-tight bottles by dissolving excess anesthetic agents in bath solutions overnight. From these stock solutions fresh dilutions were made up every 40-60 min. Concentrations of GAs in the bath solutions were verified by using a modified head-space gas chromatography method. […] Alcohols with <6 carbons were dissolved directly into extracellular solution, and alcohols containing 6 carbons or more were dissolved in DMSO and then diluted into extracellular solutions that were sonicated for 20 min. All other drugs were prepared as stock solutions in DMSO or ethanol and diluted into physiological solution before experiments.

TRPA1 [2] = target: T1, TRPA1; test: Single-channel recordings of TRPA1 (outside-out / cell-attached patches); type: cell-based; conditions: for TRPA1 single-channel conductance in presence of VGA: 0.23 mM isoflurane, 0.9 mM desflurane, reduced from ≈110 pS; for Single TRPA1 channel activity: cell-free patches
Description: (§1) Electrophysiology. HEK 293F cells were transfected with rat TRPV1, TRPA1, and TRPM8 (gift of David Julius, University of California, San Francisco). Dorsal root ganglia were cultured from adult mice (C57B16/J wild type and TRPV1-null, and mixed B6/129 background TRPA1-null) in Neurobasal +2% B-27 medium (Invitrogen), 0.1% L-glutamine and 1% penicillin/streptomycin. Whole-cell and single-channel patch-clamp recordings were performed by using an EPC8 amplifier (HEKA Electronics). For whole-cell and excised patch recordings the bath solution contained 140 mMNaCl, 4 mMKCl, 1 mMMgCl2, 1.2 mMCaCl2, 10 mMHepes, 10 mM glucose, pH 7.3. For cell-attached experiments, NaCl was replaced with KCl in the bath solution. The pipette solution contained 140 mM NaCl or KCl, 10 mM Hepes, 5 mM EGTA, pH 7.3. For neuronal recording NaCl was replaced with K-gluconate (plus 1 mMATP, 0.2 mM GTP). Solutions were applied via a gravity-fed system. Separate outlets were used to apply capsaicin and AITC solutions to avoid contamination. Voltage-dependent properties were measured as described in Matt and Ahern, J. Physiol. 585:469-482 (2007). Current-voltage measurements comprised a 200-ms ramp from −150 mV to +200 mV. The baseline currents under control conditions were subtracted. For cell-attached experiments, peak amplitudes were measured from all-points histograms, and open probability was measured as NPo>750 ms. Defolliculated Xenopus laevis oocytes were injected with ≈10 ng of hTRPA1 (gift of Ardem Patapoutian, The Scripps Research Institute, La Jolla, Calif.). Oocytes were placed in a Perspex chamber and continuously superfused (5 ml min^−1) with Ca^2+-free solution containing 100 mM NaCl, 2.5 mM KCl, 5 mM Hepes, 1 mM MgC12 and titrated to pH 7.3 with ˜5 mM NaOH.

hTRPA1 = target: T2, hTRPA1 (Homo sapiens, UniProt O75762); test: AITC-evoked currents in TRPA1-expressing Xenopus oocytes; type: cell-based; conditions: VGAs 0.5-0.65 mM, AITC 10 μM
T2 construct: expressed in transfected cells; host or cells: Xenopus laevis oocytes (injected)
Description: as §1

TRPV1 = TRPV1 (Rattus norvegicus, UniProt O35433); test: Voltage-clamp of TRPV1-expressing Xenopus oocytes (capsaicin, protons, heat); type: cell-based; conditions: for Temperature threshold of TRPV1 heat activation: control ~46° C.
Description: Oocyte electrophysiology. […] Oocytes were placed in a Perspex chamber and continuously superfused (5 ml min-1) with Ca2+-free solution containing (in mM): 100 NaCl, 2.5 KCl, 5 HEPES, 1 MgCl2 and titrated to pH 7.3 with ˜5 mM NaOH. For solutions <pH 6.0, HEPES was replaced with either 5 mM MES or 5 mM sodium citrate. Oocytes were routinely voltage-clamped at −60 mV at 22-23° C. For heat activation, bath temperature was raised from ˜22-50° C. over ˜100 s using an in-line solution heater (Warner Instruments). The temperature was continuously monitored with a probe placed within 2 mm of the oocyte. The temperature-activation threshold was defined as a 20% increase in current above baseline.
Volatile general anesthetics. Saturated stock solutions of volatile general anesthetics (VGAs) were prepared in gas-tight bottles by dissolving excess anesthetic agents in bath solutions and stirring vigorously overnight. From these stock solutions fresh dilutions were made up every 40-60 minutes. Concentrations of volatile anesthetics in the bath solutions were verified using a modified head-space gas chromatography method. The gas chromatograph (Carlo Erba, Milan, Italy) was equipped with a flame ionization detector (FID) and mass spectrometer. The carrier gas was hydrogen (60 kPa column head pressure) and the fused silica capillary column, coated with polysiloxane SE-30, was 25 m×0.25 mm. Injector temperature was 250° C., FID temperature was 300° C. and the oven was maintained at 90° C. Standards were prepared from a mixture of halothane, isoflurane, and sevoflurane dissolved in acetonitrile with enflurane as an internal standard.

[3] = rat at 37° C.; cited from earlier work

T1 sequence (Q6RI86 whole entry): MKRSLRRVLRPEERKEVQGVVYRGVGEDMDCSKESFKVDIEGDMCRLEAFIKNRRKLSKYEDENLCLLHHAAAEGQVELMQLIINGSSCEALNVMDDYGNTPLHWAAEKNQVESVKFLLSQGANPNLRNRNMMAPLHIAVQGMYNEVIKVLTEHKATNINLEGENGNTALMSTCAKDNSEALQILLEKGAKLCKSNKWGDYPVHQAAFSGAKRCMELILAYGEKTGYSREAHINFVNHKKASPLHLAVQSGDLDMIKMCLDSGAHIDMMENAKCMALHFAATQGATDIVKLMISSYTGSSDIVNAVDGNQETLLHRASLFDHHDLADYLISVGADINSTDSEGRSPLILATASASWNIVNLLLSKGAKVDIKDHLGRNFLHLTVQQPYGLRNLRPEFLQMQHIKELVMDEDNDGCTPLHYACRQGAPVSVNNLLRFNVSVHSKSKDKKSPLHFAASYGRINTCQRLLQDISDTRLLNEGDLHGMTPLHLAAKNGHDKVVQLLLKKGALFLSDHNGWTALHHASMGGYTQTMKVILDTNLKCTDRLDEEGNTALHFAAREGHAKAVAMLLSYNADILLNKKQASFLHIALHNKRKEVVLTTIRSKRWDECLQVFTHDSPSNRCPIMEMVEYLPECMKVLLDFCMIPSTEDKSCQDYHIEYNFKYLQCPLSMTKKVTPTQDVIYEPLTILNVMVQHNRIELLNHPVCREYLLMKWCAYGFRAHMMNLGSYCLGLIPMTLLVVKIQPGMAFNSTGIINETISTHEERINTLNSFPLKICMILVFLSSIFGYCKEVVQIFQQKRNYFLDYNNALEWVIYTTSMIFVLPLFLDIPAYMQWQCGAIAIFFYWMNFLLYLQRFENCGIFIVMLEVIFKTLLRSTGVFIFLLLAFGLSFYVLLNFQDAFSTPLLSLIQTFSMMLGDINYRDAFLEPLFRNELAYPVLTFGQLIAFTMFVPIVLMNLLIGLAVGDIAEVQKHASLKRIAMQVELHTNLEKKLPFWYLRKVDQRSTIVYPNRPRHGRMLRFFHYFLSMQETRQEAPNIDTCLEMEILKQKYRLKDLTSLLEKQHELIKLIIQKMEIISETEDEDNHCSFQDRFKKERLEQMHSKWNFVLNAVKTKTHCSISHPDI
Chain of TRPV1 (O35433 whole entry, the tested form may be a part): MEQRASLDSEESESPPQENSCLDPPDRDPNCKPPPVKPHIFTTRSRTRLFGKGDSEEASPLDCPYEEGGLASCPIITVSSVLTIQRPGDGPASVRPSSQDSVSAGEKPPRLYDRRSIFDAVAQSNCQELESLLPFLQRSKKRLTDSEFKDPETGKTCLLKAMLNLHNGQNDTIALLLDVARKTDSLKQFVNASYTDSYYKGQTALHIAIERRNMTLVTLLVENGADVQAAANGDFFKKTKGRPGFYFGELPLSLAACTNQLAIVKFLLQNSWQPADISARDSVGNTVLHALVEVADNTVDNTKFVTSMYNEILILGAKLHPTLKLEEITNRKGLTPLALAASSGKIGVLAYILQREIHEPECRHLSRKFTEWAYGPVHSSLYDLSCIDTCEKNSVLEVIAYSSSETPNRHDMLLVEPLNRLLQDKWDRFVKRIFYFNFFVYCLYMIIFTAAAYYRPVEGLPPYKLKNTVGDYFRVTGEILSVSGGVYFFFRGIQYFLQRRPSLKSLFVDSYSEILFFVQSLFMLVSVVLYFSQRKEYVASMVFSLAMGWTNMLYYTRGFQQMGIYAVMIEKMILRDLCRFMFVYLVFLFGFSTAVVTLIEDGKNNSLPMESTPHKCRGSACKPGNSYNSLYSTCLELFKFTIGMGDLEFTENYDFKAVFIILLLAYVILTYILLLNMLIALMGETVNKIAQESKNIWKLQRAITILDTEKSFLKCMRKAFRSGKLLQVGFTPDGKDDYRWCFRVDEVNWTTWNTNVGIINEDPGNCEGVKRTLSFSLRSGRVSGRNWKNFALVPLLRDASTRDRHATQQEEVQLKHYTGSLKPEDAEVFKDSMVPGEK
T2 sequence (O75762 whole entry): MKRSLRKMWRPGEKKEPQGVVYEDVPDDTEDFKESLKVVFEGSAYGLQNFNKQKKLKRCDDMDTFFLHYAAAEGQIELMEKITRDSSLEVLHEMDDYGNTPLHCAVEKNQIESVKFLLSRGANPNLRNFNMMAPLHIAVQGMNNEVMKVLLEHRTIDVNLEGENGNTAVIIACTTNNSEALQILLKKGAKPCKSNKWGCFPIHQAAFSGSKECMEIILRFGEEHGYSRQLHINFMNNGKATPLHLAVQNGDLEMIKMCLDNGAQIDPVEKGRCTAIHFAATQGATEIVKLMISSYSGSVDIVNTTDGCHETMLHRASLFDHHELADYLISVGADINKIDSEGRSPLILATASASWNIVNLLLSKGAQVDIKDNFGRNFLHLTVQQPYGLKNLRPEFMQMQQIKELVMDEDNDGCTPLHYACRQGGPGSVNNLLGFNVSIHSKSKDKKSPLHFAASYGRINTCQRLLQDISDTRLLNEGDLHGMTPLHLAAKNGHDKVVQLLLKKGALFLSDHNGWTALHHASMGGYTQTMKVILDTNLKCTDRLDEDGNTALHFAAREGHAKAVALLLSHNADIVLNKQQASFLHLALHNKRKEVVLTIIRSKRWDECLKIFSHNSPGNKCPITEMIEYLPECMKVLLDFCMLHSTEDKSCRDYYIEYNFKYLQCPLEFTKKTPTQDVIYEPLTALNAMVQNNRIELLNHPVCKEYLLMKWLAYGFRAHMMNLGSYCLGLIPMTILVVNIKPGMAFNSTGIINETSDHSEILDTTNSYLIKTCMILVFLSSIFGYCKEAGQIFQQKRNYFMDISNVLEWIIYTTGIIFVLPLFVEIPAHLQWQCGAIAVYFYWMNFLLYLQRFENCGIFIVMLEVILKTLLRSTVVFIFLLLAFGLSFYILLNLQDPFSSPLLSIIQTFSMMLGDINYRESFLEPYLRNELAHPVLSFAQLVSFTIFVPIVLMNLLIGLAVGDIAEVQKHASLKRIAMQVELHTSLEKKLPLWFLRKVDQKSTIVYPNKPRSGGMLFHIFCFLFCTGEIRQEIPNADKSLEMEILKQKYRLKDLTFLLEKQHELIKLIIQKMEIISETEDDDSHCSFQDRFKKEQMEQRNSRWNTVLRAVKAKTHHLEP

Compound: FC(F)OC(F)C(F)(F)F (stereo not drawn) [desflurane]
- Activation of TRPA1 currents by VGAs (TRPA1 [1]): robustly activated
- TRPA1 single-channel conductance in presence of VGA (TRPA1 [2]): ≈ 80 pS
- Increase in maximal open probability of TRPA1 (TRPA1 [2]; cell-attached patches): > 6 fold
- V1/2 of TRPA1 open probability in presence of desflurane (TRPA1 [2]; cell-attached patches, shifted from 72.1 mV): 42.5 mV
- Single TRPA1 channel activity (TRPA1 [2]): enhanced single-channel gating; also recorded: activate single TRPA1 channels
- Effect on AITC-evoked currents (hTRPA1): markedly enhanced
- Enhancement of proton-evoked currents compared with isoflurane and sevoflurane (TRPV1; VGAs 0.6 mM, pH 5.5): significantly more
- 1 MAC equivalent aqueous concentration (published conversion factor) [3]: 0.51 mM

Compound: FC(F)OC(Cl)C(F)(F)F (stereo not drawn) [isoflurane]
- Activation of TRPA1 after AITC treatment (TRPA1 [1]): failed to activate
- Activation of TRPA1 currents by VGAs (TRPA1 [1]): produced inward currents; also recorded: robustly activated
- TRPA1 response at high concentration (TRPA1 [1]; 2.7 mM, additional blocking mechanism): reduced
- EC50 of TRPA1 activation expressed in MAC (TRPA1 [1]; HEK293 cells): 0.57 MAC
- Hill coefficient of TRPA1 activation (TRPA1 [1]; HEK293 cells): 1.6±0.2
- EC50 (TRPA1 [1]; HEK293 cells, read-out: EC50 of TRPA1 activation): 180 ± 20 µM
- Effect on TRPA1 when applied together with saturating octanol (TRPA1 [1]; isoflurane 0.9 mM + octanol 1.8 mM): negligible effects
- Activation of TRPA1 at holding potential −50 mV (TRPA1 [1]; isoflurane 0.9 mM, octanol 1 mM): selectively activated
- Concentration at peak of bimodal dose-response relationship (TRPA1 [1]; reduction at higher concentrations): ≈ 1 mM
- TRPA1 single-channel conductance in presence of VGA (TRPA1 [2]): ≈ 60 pS
- Single TRPA1 channel activity (TRPA1 [2]): enhanced single-channel gating; also recorded: activate single TRPA1 channels
- Effect on AITC-evoked currents (hTRPA1): markedly enhanced
- Temperature threshold of TRPV1 heat activation (TRPV1; 0.5 mM isoflurane): 43 °C
- Temperature threshold of TRPV1 heat activation (TRPV1; 0.9 mM isoflurane): 40 °C
- Enhancement of maximal proton-evoked current (TRPV1; isoflurane 0.9 mM): approximately 3 fold
- Temperature threshold of TRPV1 heat activation after PDBu application (TRPV1; isoflurane 0.9 mM after PDBu, control 45.9±0.2): 32.8±0.8 °C
- Enhancement of currents evoked by pH 5.5 solution (TRPV1; isoflurane 0.9 mM, n=4): approximately 10 fold
- Maximal proton response as % of 10 μM capsaicin (TRPV1; isoflurane 0.9 mM, control 14.3%): 32.2%
- 1 MAC equivalent aqueous concentration (published conversion factor) [3]: 0.31 mM

From patent US20110104301A1, “METHODS OF REDUCING PAIN AND INFLAMMATION” (Georgetown University, A Congressionally Chartered …, priority 2008, published 2011)
